Reference: patent publication US6600076B1, “Cleavable, water-soluble surfactants” (The Regents of the University of California, priority 1999, dated 2003)
Read-outs that look alike come from different tables or passages of the source. Each block holds one compound with its values, some of them ahead of it.

How the values were obtained:
[1] = cited from earlier work
[2] = Equilibrium surface tension, Wilhelmy plate, borate buffer; format: physicochemical; details: 100 mM borate buffer, pH 9.2
Method: Disulfide-containing surfactants with anionic head groups were synthesized. […] Equilibrium surface tensions were measured using a Kruss K10T tensiometer with a platinum Wilhelmy plate. Surfactant solutions were prepared in a 100 mM borate buffer, pH 9.2.

[3] = Surface tension of aqueous solutions, maximum bubble pressure tensiometer, incl. reduction with DTT; format: physicochemical; details: for effect on surface tension of water: 10 mM DTT and 1 mM oxidized DTT added to water
Excerpt: (Menger, F. M. et al., J. Am. Chem. Soc. 115:10083-10090 (1993)). […] The surface tensions of the reacting system reported herein correspond, therefore, to a local steady state at the surface of the solution. In the absence of reaction, these surface tensions are equilibrium tensions.

[4] = Surface tension after oxidation with NaOCl or bleach (pendant drop); format: physicochemical; details: for surface tension: 4 mM
Method: To test the idea that oxidation of 1 by NaOCl would transform 1 into less surface-active products, changes in surface tensions that accompanied additions of aliquots of NaOCl to solutions of 1 were measured. The amount of OCl^− consumed by reaction with 1 was also determined by iodometry. The initial surface tension of the 2 mM solution (using the pendant drop technique) was measured to be 48 mN/m. […] The addition of subsequent aliquots of NaOCl, however, caused the surface tension to increase to ˜71 mN/m. […] In this case, only ˜8% of the OCl^− added remained unreacted.
The oxidation of 1 using NaOCl (6:1 ratio of NaOCl to 1) was performed in 50 mM phosphate buffers at three different pHs (pH 3, 6.9, and 11). Following the addition of NaOCl to aqueous solutions of 1 at pH 3 and pH 6.9, the surface tensions of the solutions were measured to increase from ˜48 mN/m to ˜71 mN/m within ˜5 min (FIG. 17). The surface tension was also determined to increase from ˜48 mN/m to ˜71 mN/m upon addition of NaOCl to an aqueous solution of 1 at pH 11. In this case, however, it took ˜15 min for the surface tension to increase to 71 mN/m. […] Therefore disulfide-based surfactants can form the basis of chemodegradable surfactant system that can be used over a wide pH range.
Household bleach was added (6:1 ratio of NaOCl to 1) to a 2 mM solution of 1 in pH 6.9 buffer. Upon addition of bleach to 1, the surface tension of the solution increased from 48 mN/m to ˜71 mN/m in ˜3 min (FIG. 18A), a result similar to our earlier observations based on the addition of NaOCl to 1. […] A control experiment was performed in which the household bleach was added to the phosphate buffer and found not to change the surface tension.

[5] = Interfacial tension between dodecane and aqueous solution on oxidation by NaOCl; format: physicochemical
[6] = Surface tension, pendant drop; details: 50 mM phosphate buffer pH 6.9, concentrations around or above 10 mM
[7] = Stability of solid and of aqueous solutions (surface tension over time); format: physicochemical; details: 1 mM solution in 50 mM phosphate buffer (pH 6.9)
Cyclic voltammetry = format: physicochemical; details: 5 mM of 1 or 10 mM of 2, 50 mM phosphate buffer pH 6.9, SCE reference
Method: Solutions were prepared in 50 mM phosphate buffer, pH 6.9. Application of potential was controlled using a potentiostat (Pine Instruments, Grove City, Pa.), and the experimental set-up involved using a carbon felt working electrode with cobalt phthalocyanine (catalyst) evaporated onto the surface of the electrode. A platinum counter electrode and SCE reference electrode were also used.

[8] = DTT (10 equivalents) added
[9] = 10 mM of 1, 5 wt. % dodecane, NaOCl 6:1

Compound: C[N+](C)(C)CCCCCCCCCCCC[N+](C)(C)C.[Br-].[Br-] [dodecane-1,12-bis(trimethylammoniumdibromide)]
- limiting surface tension ([1]; dissolved into water): 38 mN/m

- differences in equilibrium surface tensions between 3 and 4 at a specified concentration [2]: up to 16 mN/m
Compound: 1,16-dicarboxylic dioctyl disulfide [compound 3]

Compound: OC1CSSCC1O (centres unmarked) [oxidized DTT, reference compound]
- effect on surface tension of water [3]: did not result in a change in surface tension

- surface activity of the oxidation product ([4]; up to a concentration of 10 mM, 6:1 NaOCl to 1): surface-inactive
- surface pressure π at the interface of dodecane and water ([5]; 10 mM of 1 oxidized): 22.5 mN/m
- surface pressure π at the surface of water ([5]; concentration of 10 mN (printed)): 2 mN/m
- limiting surface tension [6]: ~47 mN/m
Compound: O=C(O)CCCCCCCS [compound 4, 8-mercaptooctanoic acid]

Compound: CCCCCCCCCCCC[N+](C)(C)C.[Br-] [DTAB, dodecyltrimethylammonium bromide, reference compound]
- surface tension of the initial solution ([4]; 4 mM solution, before NaOCl): ~52 mN/m
- surface tension ([4]; first equivalent of NaOCl): ~43 mN/m
- surface tension ([4]; second equivalent of NaOCl): ~50 mN/m
- surface tension ([4]; up to six equivalents of NaOCl): 45 mN/m

Compound: CCCCCCCCCCCCCCCC[N+](C)(C)C.[Br-] [CTAB, cetyltrimethylammonium bromide]
- increase in surface tension over 24 h [7]: ~0.5 mN/m
- increase in surface tension over 5 days [7]: 1 mN/m
- surface tension [7]: ~41 mN/m
- limiting surface tension (γlim) ([1]; in 0.1 M lithium sulfate): 39 mN/m

Compound: O[C@H](CS)[C@H](O)CS (racemic) [DTT, dithiothreitol, reference compound]
- effect on surface tension of water [3]: did not result in a change in surface tension

- average area occupied at the surface ([3]; 2 mM solution of 2, Gibbs adsorption equation): > 500 A^2/molecule
- threshold concentration of surfactant causing a measurable reduction in surface tension ([3]; 50 mM phosphate buffer, pH 6.9, 25° C.): ~1 mM
- oxidation peak (Cyclic voltammetry): 0.55 V
Compound: C[N+](C)(C)CCCCCCCCS.[Br-] [compound 2, (8-mercaptooctyl)trimethylammonium bromide]

Compound: bis(8-trimethylammonium bromide)dioctyl disulfide [compound 1]
- duration of the rapid oxidation [4]: 2 to 3 min
- time for the surface tension to increase ([4]; NaOCl 6:1, pH 3 and pH 6.9): ≤ 5 min
- time for the surface tension to increase ([4]; NaOCl 6:1, pH 11): ~15 min
- time for the surface tension to increase ([4]; household bleach, 6:1, pH 6.9): ~3 min
- time for the interfacial tension to increase ([5]; 10 mM, 6 equivalents of NaOCl): ≤ 3 min
- completion of phase separation of the emulsion [8]: ~120 min
- completion of phase separation of the emulsion [9]: 45 min
- evidence of phase separation of the emulsion [9]: ≤ 10 min

Compound: CCCCCCCCCCCCOS(=O)(=O)[O-].[Na+] [SDS, sodium dodecyl sulfate]
- surface pressure at an air-aqueous interface ([1]; 1 mM solution): 7.5 mN/m
- surface pressure at the heptadecane-aqueous interface ([1]; 1 mM solution): 15.2 mN/m
